Reference: the kinase profiling compilation of Christmann-Franck et al. (2016)

The compounds below were run against MAP2K1 (human) (UniProt Q02750) (assay: radiometric filter-binding kinase assay, Kinase HotSpot). Settings: compound 0.5 µM; ATP 10 µM.
`COc1cc2ncnc(Nc3ccc(O)c(Br)c3)c2cc1OC` gave a residual activity of 98.2%.
`CCOc1cc2ncnc(Nc3cccc(Br)c3)c2cc1OCC` gave a residual activity of 96.1%.

What follows are compounds tested against STK25 (human) (UniProt O00506) in the same assay as above. Settings: compound 0.5 µM; ATP 10 µM.
STK25 (human), sequence (O00506 whole entry, looked up): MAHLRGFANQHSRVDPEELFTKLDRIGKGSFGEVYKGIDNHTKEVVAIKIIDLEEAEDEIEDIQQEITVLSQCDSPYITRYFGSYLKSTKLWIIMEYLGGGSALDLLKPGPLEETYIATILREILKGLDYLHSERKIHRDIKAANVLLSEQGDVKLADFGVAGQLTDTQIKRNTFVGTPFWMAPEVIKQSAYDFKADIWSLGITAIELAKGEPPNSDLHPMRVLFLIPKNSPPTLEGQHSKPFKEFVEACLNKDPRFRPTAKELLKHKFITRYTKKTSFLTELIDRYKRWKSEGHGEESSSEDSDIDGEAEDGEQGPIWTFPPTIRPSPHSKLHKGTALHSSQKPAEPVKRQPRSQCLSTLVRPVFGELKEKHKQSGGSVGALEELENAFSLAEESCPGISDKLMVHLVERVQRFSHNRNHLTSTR
For `O=C(O)c1ccc2c3c1cccc3c(=O)n1c3ccccc3nc21`, the residual activity was 104%.
For `Cc1cc(Nc2nc(-c3ccccc3)nc3ccccc23)n[nH]1`, the residual activity was 86.7%.
`N#Cc1c(NC(=O)c2cccc3ccccc23)sc2c1CCCC2` was tested, and the residual activity was 95.7%.
`COc1cc2ncnc(Nc3ccc(O)c(Br)c3)c2cc1OC` gave a residual activity of 99.6%.
Work on `CCOc1cc2ncnc(Nc3cccc(Br)c3)c2cc1OCC` yielded a residual activity of 90.1%.

Each compound was assayed against SIK2 (human) (UniProt Q9H0K1) in the same assay as above. Settings: compound 0.5 µM; ATP 10 µM.
With `O=C(O)c1ccc2c3c1cccc3c(=O)n1c3ccccc3nc21` the residual activity was 92.8%.
For `Cc1cc(Nc2nc(-c3ccccc3)nc3ccccc23)n[nH]1`, the residual activity was 99.6%.
With `N#Cc1c(NC(=O)c2cccc3ccccc23)sc2c1CCCC2` the residual activity was 101%.
Work on `COc1cc2ncnc(Nc3ccc(O)c(Br)c3)c2cc1OC` yielded a residual activity of 92.2%.
`CCOc1cc2ncnc(Nc3cccc(Br)c3)c2cc1OCC` showed a residual activity of 109%.

What follows are compounds tested against STK33 (human) (UniProt Q9BYT3) in the same assay as above. Settings: compound 0.5 µM; ATP 10 µM.
STK33 (human), sequence (Q9BYT3 whole entry, looked up): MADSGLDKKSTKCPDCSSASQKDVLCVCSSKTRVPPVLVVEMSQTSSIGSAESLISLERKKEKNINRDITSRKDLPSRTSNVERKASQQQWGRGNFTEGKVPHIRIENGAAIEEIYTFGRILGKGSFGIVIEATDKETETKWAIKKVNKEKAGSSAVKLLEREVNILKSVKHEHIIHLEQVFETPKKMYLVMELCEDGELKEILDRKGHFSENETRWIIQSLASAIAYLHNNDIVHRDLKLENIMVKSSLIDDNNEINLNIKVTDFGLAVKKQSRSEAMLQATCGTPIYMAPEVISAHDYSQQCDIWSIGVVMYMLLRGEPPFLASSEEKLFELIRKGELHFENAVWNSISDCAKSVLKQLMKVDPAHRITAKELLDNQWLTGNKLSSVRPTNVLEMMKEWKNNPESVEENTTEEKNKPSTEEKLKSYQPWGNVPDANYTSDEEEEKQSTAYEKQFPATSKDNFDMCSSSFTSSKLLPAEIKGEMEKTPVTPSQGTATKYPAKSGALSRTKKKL
`O=C(O)c1ccc2c3c1cccc3c(=O)n1c3ccccc3nc21` showed a residual activity of 78.8%.
`Cc1cc(Nc2nc(-c3ccccc3)nc3ccccc23)n[nH]1` gave a residual activity of 44.7%.
`N#Cc1c(NC(=O)c2cccc3ccccc23)sc2c1CCCC2` showed a residual activity of 93%.
`COc1cc2ncnc(Nc3ccc(O)c(Br)c3)c2cc1OC` was tested, and the residual activity was 80.7%.
Work on `CCOc1cc2ncnc(Nc3cccc(Br)c3)c2cc1OCC` yielded a residual activity of 93.9%.

Each compound was assayed against CAMK1 (human) (UniProt Q14012) in the same assay as above. Settings: compound 0.5 µM; ATP 10 µM.
With `O=C(O)c1ccc2c3c1cccc3c(=O)n1c3ccccc3nc21` the residual activity was 101%.
`Cc1cc(Nc2nc(-c3ccccc3)nc3ccccc23)n[nH]1` gave a residual activity of 93.1%.
For `N#Cc1c(NC(=O)c2cccc3ccccc23)sc2c1CCCC2`, the residual activity was 108%.
`COc1cc2ncnc(Nc3ccc(O)c(Br)c3)c2cc1OC` showed a residual activity of 103%.
With `CCOc1cc2ncnc(Nc3cccc(Br)c3)c2cc1OCC` the residual activity was 79.9%.

These compounds were tested against ACVR1B (human) (UniProt P36896) in the same assay as above. Settings: compound 0.5 µM; ATP 10 µM.
In the case of `O=C(O)c1ccc2c3c1cccc3c(=O)n1c3ccccc3nc21`, the residual activity is reported as 93.5%.
`Cc1cc(Nc2nc(-c3ccccc3)nc3ccccc23)n[nH]1` gave a residual activity of 103%.
Work on `N#Cc1c(NC(=O)c2cccc3ccccc23)sc2c1CCCC2` yielded a residual activity of 96.5%.
`COc1cc2ncnc(Nc3ccc(O)c(Br)c3)c2cc1OC` showed a residual activity of 105%.
In the case of `CCOc1cc2ncnc(Nc3cccc(Br)c3)c2cc1OCC`, the residual activity is reported as 101%.

Each compound was assayed against JAK2 JH1 JH2 (human) (UniProt O60674) in the same assay as above. Settings: compound 0.5 µM; ATP 10 µM.
With `O=C(O)c1ccc2c3c1cccc3c(=O)n1c3ccccc3nc21` the residual activity was 86.7%.
With `Cc1cc(Nc2nc(-c3ccccc3)nc3ccccc23)n[nH]1` the residual activity was 52.6%.
`N#Cc1c(NC(=O)c2cccc3ccccc23)sc2c1CCCC2` was tested, and the residual activity was 103%.
`COc1cc2ncnc(Nc3ccc(O)c(Br)c3)c2cc1OC` was tested, and the residual activity was 95%.
`CCOc1cc2ncnc(Nc3cccc(Br)c3)c2cc1OCC` showed a residual activity of 99%.

Each compound was assayed against GRK4 (human) (UniProt P32298) in the same assay as above. Settings: compound 0.5 µM; ATP 10 µM.
For `O=C(O)c1ccc2c3c1cccc3c(=O)n1c3ccccc3nc21`, the residual activity was 95.5%.
`Cc1cc(Nc2nc(-c3ccccc3)nc3ccccc23)n[nH]1` was tested, and the residual activity was 92.1%.
Work on `N#Cc1c(NC(=O)c2cccc3ccccc23)sc2c1CCCC2` yielded a residual activity of 110%.
`COc1cc2ncnc(Nc3ccc(O)c(Br)c3)c2cc1OC` gave a residual activity of 105%.
`CCOc1cc2ncnc(Nc3cccc(Br)c3)c2cc1OCC` was tested, and the residual activity was 96.2%.

These compounds were tested against NEK2 (human) (UniProt P51955) in the same assay as above. Settings: compound 0.5 µM; ATP 10 µM.
NEK2 (human), sequence (P51955 whole entry, looked up): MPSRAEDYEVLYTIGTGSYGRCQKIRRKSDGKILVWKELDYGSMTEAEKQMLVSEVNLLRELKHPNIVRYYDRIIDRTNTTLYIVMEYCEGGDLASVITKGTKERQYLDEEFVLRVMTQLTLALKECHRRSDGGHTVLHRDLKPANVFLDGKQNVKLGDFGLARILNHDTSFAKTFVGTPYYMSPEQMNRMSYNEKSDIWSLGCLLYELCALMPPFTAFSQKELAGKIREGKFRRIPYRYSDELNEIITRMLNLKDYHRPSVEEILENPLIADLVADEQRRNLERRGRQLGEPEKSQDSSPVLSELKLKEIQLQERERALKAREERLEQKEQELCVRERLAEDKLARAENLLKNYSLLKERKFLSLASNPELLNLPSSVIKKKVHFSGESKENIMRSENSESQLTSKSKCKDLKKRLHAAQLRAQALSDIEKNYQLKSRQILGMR
`O=C(O)c1ccc2c3c1cccc3c(=O)n1c3ccccc3nc21` was tested, and the residual activity was 109%.
For `Cc1cc(Nc2nc(-c3ccccc3)nc3ccccc23)n[nH]1`, the residual activity was 99.3%.
In the case of `N#Cc1c(NC(=O)c2cccc3ccccc23)sc2c1CCCC2`, the residual activity is reported as 88.1%.
`COc1cc2ncnc(Nc3ccc(O)c(Br)c3)c2cc1OC` gave a residual activity of 105%.
In the case of `CCOc1cc2ncnc(Nc3cccc(Br)c3)c2cc1OCC`, the residual activity is reported as 98.7%.

Each compound was assayed against SYK (human) (UniProt P43405) in the same assay as above. Settings: compound 0.5 µM; ATP 10 µM.
For `O=C(O)c1ccc2c3c1cccc3c(=O)n1c3ccccc3nc21`, the residual activity was 96%.
In the case of `Cc1cc(Nc2nc(-c3ccccc3)nc3ccccc23)n[nH]1`, the residual activity is reported as 61.9%.
`N#Cc1c(NC(=O)c2cccc3ccccc23)sc2c1CCCC2` showed a residual activity of 97.6%.
Work on `COc1cc2ncnc(Nc3ccc(O)c(Br)c3)c2cc1OC` yielded a residual activity of 86.7%.
In the case of `CCOc1cc2ncnc(Nc3cccc(Br)c3)c2cc1OCC`, the residual activity is reported as 95.6%.

What follows are compounds tested against ADRBK1 (human) (UniProt P25098) in the same assay as above. Settings: compound 0.5 µM; ATP 10 µM.
In the case of `O=C(O)c1ccc2c3c1cccc3c(=O)n1c3ccccc3nc21`, the residual activity is reported as 99.3%.
`Cc1cc(Nc2nc(-c3ccccc3)nc3ccccc23)n[nH]1` gave a residual activity of 106%.
`N#Cc1c(NC(=O)c2cccc3ccccc23)sc2c1CCCC2` was tested, and the residual activity was 105%.
Compound `COc1cc2ncnc(Nc3ccc(O)c(Br)c3)c2cc1OC` has a residual activity of 99%.
Compound `CCOc1cc2ncnc(Nc3cccc(Br)c3)c2cc1OCC` has a residual activity of 95.4%.

What follows are compounds tested against TNK2 (human) (UniProt Q07912) in the same assay as above. Settings: compound 0.5 µM; ATP 10 µM.
Work on `O=C(O)c1ccc2c3c1cccc3c(=O)n1c3ccccc3nc21` yielded a residual activity of 101%.
With `Cc1cc(Nc2nc(-c3ccccc3)nc3ccccc23)n[nH]1` the residual activity was 10.8%.
Work on `N#Cc1c(NC(=O)c2cccc3ccccc23)sc2c1CCCC2` yielded a residual activity of 95.4%.
`COc1cc2ncnc(Nc3ccc(O)c(Br)c3)c2cc1OC` was tested, and the residual activity was 10.5%.
`CCOc1cc2ncnc(Nc3cccc(Br)c3)c2cc1OCC` gave a residual activity of 58.8%.

The compounds below were run against CDK6 CCND1 (human) (UniProt Q00534+P24385) in the same assay as above. Settings: compound 0.5 µM; ATP 10 µM.
Compound `O=C(O)c1ccc2c3c1cccc3c(=O)n1c3ccccc3nc21` has a residual activity of 90.6%.
`Cc1cc(Nc2nc(-c3ccccc3)nc3ccccc23)n[nH]1` showed a residual activity of 85.5%.
`N#Cc1c(NC(=O)c2cccc3ccccc23)sc2c1CCCC2` showed a residual activity of 94%.
`COc1cc2ncnc(Nc3ccc(O)c(Br)c3)c2cc1OC` showed a residual activity of 95.4%.
Work on `CCOc1cc2ncnc(Nc3cccc(Br)c3)c2cc1OCC` yielded a residual activity of 102%.

The compounds below were run against PRKCA (human) (UniProt P17252) in the same assay as above. Settings: compound 0.5 µM; ATP 10 µM.
Compound `O=C(O)c1ccc2c3c1cccc3c(=O)n1c3ccccc3nc21` has a residual activity of 101%.
`Cc1cc(Nc2nc(-c3ccccc3)nc3ccccc23)n[nH]1` was tested, and the residual activity was 92.2%.
Work on `N#Cc1c(NC(=O)c2cccc3ccccc23)sc2c1CCCC2` yielded a residual activity of 99.5%.
For `COc1cc2ncnc(Nc3ccc(O)c(Br)c3)c2cc1OC`, the residual activity was 109%.
`CCOc1cc2ncnc(Nc3cccc(Br)c3)c2cc1OCC` gave a residual activity of 85.3%.

The compounds below were run against ROCK2 (human) (UniProt O75116) in the same assay as above. Settings: compound 0.5 µM; ATP 10 µM.
With `O=C(O)c1ccc2c3c1cccc3c(=O)n1c3ccccc3nc21` the residual activity was 99%.
In the case of `Cc1cc(Nc2nc(-c3ccccc3)nc3ccccc23)n[nH]1`, the residual activity is reported as 87.6%.
`N#Cc1c(NC(=O)c2cccc3ccccc23)sc2c1CCCC2` gave a residual activity of 98%.
`COc1cc2ncnc(Nc3ccc(O)c(Br)c3)c2cc1OC` was tested, and the residual activity was 89.9%.
For `CCOc1cc2ncnc(Nc3cccc(Br)c3)c2cc1OCC`, the residual activity was 91.8%.

These compounds were tested against STK39 (human) (UniProt Q9UEW8) in the same assay as above. Settings: compound 0.5 µM; ATP 10 µM.
`O=C(O)c1ccc2c3c1cccc3c(=O)n1c3ccccc3nc21` showed a residual activity of 102%.
For `Cc1cc(Nc2nc(-c3ccccc3)nc3ccccc23)n[nH]1`, the residual activity was 118%.
For `N#Cc1c(NC(=O)c2cccc3ccccc23)sc2c1CCCC2`, the residual activity was 94.6%.
With `COc1cc2ncnc(Nc3ccc(O)c(Br)c3)c2cc1OC` the residual activity was 87.4%.
With `CCOc1cc2ncnc(Nc3cccc(Br)c3)c2cc1OCC` the residual activity was 110%.

The compounds below were run against NEK1 (human) (UniProt Q96PY6) in the same assay as above. Settings: compound 0.5 µM; ATP 10 µM.
NEK1 (human), sequence (Q96PY6 whole entry, looked up): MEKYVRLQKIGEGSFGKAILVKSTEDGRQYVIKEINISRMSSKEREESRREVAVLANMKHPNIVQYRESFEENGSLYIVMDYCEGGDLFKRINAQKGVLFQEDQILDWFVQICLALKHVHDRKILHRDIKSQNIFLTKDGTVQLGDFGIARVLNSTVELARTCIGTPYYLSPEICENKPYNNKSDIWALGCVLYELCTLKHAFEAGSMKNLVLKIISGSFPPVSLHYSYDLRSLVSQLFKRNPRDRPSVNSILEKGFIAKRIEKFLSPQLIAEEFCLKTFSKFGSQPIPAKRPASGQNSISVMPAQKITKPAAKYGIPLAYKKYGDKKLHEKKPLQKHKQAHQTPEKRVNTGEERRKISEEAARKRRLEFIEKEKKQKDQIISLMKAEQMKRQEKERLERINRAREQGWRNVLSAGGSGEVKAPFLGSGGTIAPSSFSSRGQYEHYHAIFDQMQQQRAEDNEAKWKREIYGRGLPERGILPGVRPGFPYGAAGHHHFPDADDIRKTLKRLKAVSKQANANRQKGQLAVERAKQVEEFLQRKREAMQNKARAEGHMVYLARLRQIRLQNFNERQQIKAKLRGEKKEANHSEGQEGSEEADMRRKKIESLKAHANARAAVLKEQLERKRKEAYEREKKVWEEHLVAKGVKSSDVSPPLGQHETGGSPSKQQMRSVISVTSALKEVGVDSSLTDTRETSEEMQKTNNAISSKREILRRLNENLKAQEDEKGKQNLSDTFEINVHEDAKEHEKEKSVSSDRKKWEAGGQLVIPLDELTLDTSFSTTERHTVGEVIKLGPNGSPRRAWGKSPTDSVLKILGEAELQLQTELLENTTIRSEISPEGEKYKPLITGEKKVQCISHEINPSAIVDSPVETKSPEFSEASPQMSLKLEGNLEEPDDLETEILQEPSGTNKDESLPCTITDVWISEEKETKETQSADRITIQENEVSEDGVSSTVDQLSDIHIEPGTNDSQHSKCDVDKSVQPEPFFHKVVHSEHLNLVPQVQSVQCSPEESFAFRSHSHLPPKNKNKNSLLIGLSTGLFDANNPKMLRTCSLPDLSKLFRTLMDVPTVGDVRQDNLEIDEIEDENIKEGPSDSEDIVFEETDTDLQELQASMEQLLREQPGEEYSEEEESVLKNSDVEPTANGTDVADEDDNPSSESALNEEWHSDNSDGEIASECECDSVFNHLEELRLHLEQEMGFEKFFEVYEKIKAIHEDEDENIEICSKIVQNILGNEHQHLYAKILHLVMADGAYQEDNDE
Work on `O=C(O)c1ccc2c3c1cccc3c(=O)n1c3ccccc3nc21` yielded a residual activity of 87.8%.
Work on `Cc1cc(Nc2nc(-c3ccccc3)nc3ccccc23)n[nH]1` yielded a residual activity of 93%.
Work on `N#Cc1c(NC(=O)c2cccc3ccccc23)sc2c1CCCC2` yielded a residual activity of 93.4%.
`COc1cc2ncnc(Nc3ccc(O)c(Br)c3)c2cc1OC` gave a residual activity of 90.5%.
Work on `CCOc1cc2ncnc(Nc3cccc(Br)c3)c2cc1OCC` yielded a residual activity of 99.2%.

What follows are compounds tested against PTK2B (human) (UniProt Q14289) in the same assay as above. Settings: compound 0.5 µM; ATP 10 µM.
PTK2B (human), sequence (Q14289 whole entry, looked up): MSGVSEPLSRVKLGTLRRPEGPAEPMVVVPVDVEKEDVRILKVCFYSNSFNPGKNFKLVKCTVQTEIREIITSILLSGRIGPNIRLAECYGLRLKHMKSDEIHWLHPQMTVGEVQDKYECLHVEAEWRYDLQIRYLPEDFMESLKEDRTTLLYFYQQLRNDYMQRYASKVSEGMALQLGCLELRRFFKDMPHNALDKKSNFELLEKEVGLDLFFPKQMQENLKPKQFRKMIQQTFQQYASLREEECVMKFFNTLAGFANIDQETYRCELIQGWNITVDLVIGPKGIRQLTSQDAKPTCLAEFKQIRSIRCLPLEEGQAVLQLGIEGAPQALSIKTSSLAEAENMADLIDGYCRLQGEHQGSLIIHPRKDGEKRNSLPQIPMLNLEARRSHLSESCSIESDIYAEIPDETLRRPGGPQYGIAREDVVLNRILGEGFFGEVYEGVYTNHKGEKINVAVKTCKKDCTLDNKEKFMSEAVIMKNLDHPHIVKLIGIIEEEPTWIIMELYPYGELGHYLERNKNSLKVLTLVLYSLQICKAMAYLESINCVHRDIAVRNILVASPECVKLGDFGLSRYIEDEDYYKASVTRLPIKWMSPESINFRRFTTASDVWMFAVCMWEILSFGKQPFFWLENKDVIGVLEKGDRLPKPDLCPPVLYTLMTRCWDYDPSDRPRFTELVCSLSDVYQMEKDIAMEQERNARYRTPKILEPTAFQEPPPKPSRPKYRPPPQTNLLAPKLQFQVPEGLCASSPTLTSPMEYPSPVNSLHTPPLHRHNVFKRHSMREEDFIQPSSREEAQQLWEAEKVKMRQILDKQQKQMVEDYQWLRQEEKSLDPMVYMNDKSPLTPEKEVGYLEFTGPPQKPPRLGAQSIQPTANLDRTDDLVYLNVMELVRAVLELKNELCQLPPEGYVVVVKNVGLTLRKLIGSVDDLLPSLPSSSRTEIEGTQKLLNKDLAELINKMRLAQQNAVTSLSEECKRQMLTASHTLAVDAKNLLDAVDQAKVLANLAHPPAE
Work on `O=C(O)c1ccc2c3c1cccc3c(=O)n1c3ccccc3nc21` yielded a residual activity of 69.2%.
`Cc1cc(Nc2nc(-c3ccccc3)nc3ccccc23)n[nH]1` was tested, and the residual activity was 61.4%.
With `N#Cc1c(NC(=O)c2cccc3ccccc23)sc2c1CCCC2` the residual activity was 108%.
Work on `COc1cc2ncnc(Nc3ccc(O)c(Br)c3)c2cc1OC` yielded a residual activity of 86.9%.
Compound `CCOc1cc2ncnc(Nc3cccc(Br)c3)c2cc1OCC` has a residual activity of 95.8%.

These compounds were tested against MLTK (human) (UniProt Q9NYL2) in the same assay as above. Settings: compound 0.5 µM; ATP 10 µM.
MLTK (human), sequence (Q9NYL2 whole entry, looked up): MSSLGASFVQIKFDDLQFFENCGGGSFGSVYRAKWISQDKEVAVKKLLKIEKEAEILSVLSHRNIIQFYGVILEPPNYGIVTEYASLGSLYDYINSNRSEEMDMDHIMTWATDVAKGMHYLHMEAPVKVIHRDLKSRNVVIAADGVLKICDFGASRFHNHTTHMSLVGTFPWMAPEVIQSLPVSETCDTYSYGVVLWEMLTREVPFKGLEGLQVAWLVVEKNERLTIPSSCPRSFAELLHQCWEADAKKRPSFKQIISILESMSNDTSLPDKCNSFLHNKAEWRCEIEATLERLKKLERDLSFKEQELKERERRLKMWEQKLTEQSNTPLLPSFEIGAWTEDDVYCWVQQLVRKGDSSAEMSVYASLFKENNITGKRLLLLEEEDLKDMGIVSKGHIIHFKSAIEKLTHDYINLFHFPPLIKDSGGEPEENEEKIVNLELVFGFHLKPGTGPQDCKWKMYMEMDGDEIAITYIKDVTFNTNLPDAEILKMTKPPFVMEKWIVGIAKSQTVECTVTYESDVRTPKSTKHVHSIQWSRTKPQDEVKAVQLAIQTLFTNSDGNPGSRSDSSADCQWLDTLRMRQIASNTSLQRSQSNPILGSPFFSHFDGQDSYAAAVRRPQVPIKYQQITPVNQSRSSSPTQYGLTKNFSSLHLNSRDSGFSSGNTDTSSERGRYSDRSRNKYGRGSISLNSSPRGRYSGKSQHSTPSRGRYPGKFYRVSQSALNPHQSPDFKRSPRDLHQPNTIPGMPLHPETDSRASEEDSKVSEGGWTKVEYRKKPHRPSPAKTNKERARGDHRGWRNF
With `O=C(O)c1ccc2c3c1cccc3c(=O)n1c3ccccc3nc21` the residual activity was 100%.
Compound `Cc1cc(Nc2nc(-c3ccccc3)nc3ccccc23)n[nH]1` has a residual activity of 87.1%.
In the case of `N#Cc1c(NC(=O)c2cccc3ccccc23)sc2c1CCCC2`, the residual activity is reported as 93.2%.
`COc1cc2ncnc(Nc3ccc(O)c(Br)c3)c2cc1OC` gave a residual activity of 89%.
With `CCOc1cc2ncnc(Nc3cccc(Br)c3)c2cc1OCC` the residual activity was 89.8%.

These compounds were tested against CAMKK1 (human) (UniProt Q8N5S9) in the same assay as above. Settings: compound 0.5 µM; ATP 10 µM.
Compound `O=C(O)c1ccc2c3c1cccc3c(=O)n1c3ccccc3nc21` has a residual activity of 45.8%.
In the case of `Cc1cc(Nc2nc(-c3ccccc3)nc3ccccc23)n[nH]1`, the residual activity is reported as 90.7%.
Compound `N#Cc1c(NC(=O)c2cccc3ccccc23)sc2c1CCCC2` has a residual activity of 109%.
`COc1cc2ncnc(Nc3ccc(O)c(Br)c3)c2cc1OC` was tested, and the residual activity was 95.8%.
Work on `CCOc1cc2ncnc(Nc3cccc(Br)c3)c2cc1OCC` yielded a residual activity of 88.2%.

Each compound was assayed against TGFBR2 (human) (UniProt P37173) in the same assay as above. Settings: compound 0.5 µM; ATP 10 µM.
TGFBR2 (human), sequence (P37173 whole entry, looked up): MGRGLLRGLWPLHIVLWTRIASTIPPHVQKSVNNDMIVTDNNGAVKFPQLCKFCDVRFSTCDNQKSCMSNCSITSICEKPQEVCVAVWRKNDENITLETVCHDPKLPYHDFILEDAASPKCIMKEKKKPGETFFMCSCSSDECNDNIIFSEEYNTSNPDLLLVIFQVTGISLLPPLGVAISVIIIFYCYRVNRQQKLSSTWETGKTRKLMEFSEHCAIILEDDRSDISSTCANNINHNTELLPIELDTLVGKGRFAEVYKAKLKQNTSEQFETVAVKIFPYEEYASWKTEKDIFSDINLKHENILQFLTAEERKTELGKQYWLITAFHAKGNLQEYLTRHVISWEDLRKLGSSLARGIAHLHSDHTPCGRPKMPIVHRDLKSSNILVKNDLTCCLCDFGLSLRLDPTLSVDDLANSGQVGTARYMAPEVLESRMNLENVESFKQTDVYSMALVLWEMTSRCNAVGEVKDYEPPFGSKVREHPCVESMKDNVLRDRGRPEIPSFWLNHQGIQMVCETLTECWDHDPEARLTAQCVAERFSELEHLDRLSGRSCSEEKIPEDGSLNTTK
`O=C(O)c1ccc2c3c1cccc3c(=O)n1c3ccccc3nc21` gave a residual activity of 133%.
Work on `Cc1cc(Nc2nc(-c3ccccc3)nc3ccccc23)n[nH]1` yielded a residual activity of 116%.
`N#Cc1c(NC(=O)c2cccc3ccccc23)sc2c1CCCC2` gave a residual activity of 104%.
For `COc1cc2ncnc(Nc3ccc(O)c(Br)c3)c2cc1OC`, the residual activity was 105%.
In the case of `CCOc1cc2ncnc(Nc3cccc(Br)c3)c2cc1OCC`, the residual activity is reported as 83.4%.
